Reference: patent US20160361311A1, “LIGANDS THAT TARGET HEPATITIS C VIRUS E2 PROTEIN” (AMERICAN UNIVERSITY OF CAIRO, priority 2014, published 2016)
pIC50: −log10 of the molar value.

Key:
recombinant E2 protein = target: T1, recombinant E2 protein (Hepatitis C virus genotype 1b, UniProt Q9WMX2); test: Surface plasmon resonance (Biacore T100) binding to recombinant E2 immobilized on CM5 chip
T1 construct: encoding amino acids 384-656 of the Con1 envelope protein 2 ectodomain (eE2); made in house; host or cells: HEK293T cells (lentiviral, secreted)
Description: A construct containing the sequence encoding amino acids 384-656 of the Con1 envelope protein 2 ectodomain (eE2), a genoptype 1 E2 sequence, was cloned into a lentiviral expression vector with a carboxy-terminal Protein A tag separated by a PreScission Protease cleavage consensus sequence. eE2-ProtA was stably expressed in HEK293T cells using lentiviral infection. The protein was secreted into the media and supernatants were purified using IgG Sepharose (GE Healthcare, Piscataway, N.J.). eE2-ProtA was eluted with 100 mM sodium citrate and 20 mM KCl at pH 3 directly into tubes containing 1M Tris pH 9 for immediate neutralization. PreScission Protease was added to the eluted sample at a ratio of 1:50 (enzyme:eE2), and the digest was then dialyzed into 20 mM HEPES pH 7.5, 250 mM NaCl, 5% glycerol. eE2 was separated from the cleaved tag and the PreScission Protease by ion exchange chromatography.
The set of 34 of the ligands predicted by AutoDock to bind to E2 were tested experimentally to determine if they bind to recombinant E2 protein immobilized on a chip using surface Plasmon resonance. The SPR analyses were performed using a Biacore T100 workstation (GE Healthcare, NJ, USA) and Prot-A-tagged HCV E2 protein. 1 μM ProtA-HCV E2 was diluted into 10 mM sodium acetate buffer pH 5 and immobilized for 15 min at a flow speed of 5 μl/min onto a CM5 sensor chip using amine coupling (EDC-NHS). Approximately 10,000 response units (RU) of protein were immobilized on the chip. His-CD81-LEL (Bioclone-CA/USA) binding to HCV E2 was tested prior to injecting the ligands to confirm the E2 protein was functional and would bind CD81-LEL. In a typical experiment with CD81, […] of his-CD81 in 114 μl PBS was injected into channel 2 and 106.4 RUs of CD81 bound to the E2 on the chip. This was followed by testing the binding of the 34 virtual screening hits where the ligands were prepared as 200 μM solutions in PBS and they were introduced to the protein using a pre-programmed 3 min association and 1 min dissociation interval. The response was measured at two time points during dissociation, 10 and 50 seconds, to obtain information on the rate of ligand dissociation from E2. Twenty-three of the ligands predicted by AutoDock to bind to E2 were observed by SPR to bind to the recombinant protein (Table 2). The measured responses for the ligands that bound varied from 54 to 276 RUs. Data was also obtained on the rate of ligand dissociation by measuring the amount of ligand remaining bound at two time points, dissociation 1 (10 seconds) and dissociation 2 (50 seconds), during the rinsing of the chip with buffer (FIG. 8). The majority of the ligands dissociated quickly, as one might expect for small molecules that bind to the surface of a protein.

HCVpp 6a = test: HCVpp genotype infection of Huh-7 cells, 24-well; format: cell-based, HCV; conditions: Hepatitis C virus
Method: (§1) Pseudotyped retroviral particles harboring HCV envelope proteins (HCVpp) from different genotypes were produced as described previously. A plasmid encoding the feline endogenous virus RD114 glycoprotein [35] was used for the production of RD114pp. Both HCVpp and RD114pp expressed Firefly luciferase.
(§2) To identify ligands that inhibit HCV infection, Huh-7 cells were seeded in 96-well plates and treated the day after with six different concentrations of each ligand diluted in DMSO in duplicate using a Zephyr automated liquid handling workstation (Caliper BioSciences, Hopkinton, Mass.). The final concentration of DMSO (1%) was adjusted to be the same for all ligand concentrations. Cells treated with DMSO were used as negative controls. Cells treated with different concentrations of anti-CD81 (JS-81 from BD Pharmingen, San Jose, Calif.) 1 hour before infection, were also used as positive controls. The third day, RD114pp, HCVpp or HCVcc were inoculated and incubated for 30 hours at 37° C. Firefly and Gaussia luciferase assays were performed as indicated by the manufacturer (Promega, San Luis Obispo, Calif.).
(§3) The analysis of the effect of 281816 ligand on Huh-7 infection by HCVpp bearing envelope proteins from different genotypes was performed in 24-well plates using the method described above. This ligand was also screened for toxicity to the hepatocytes using the MTS (3-(4,5-dimethylthiazol-2-yl)-5-(3-carboxymethoxyphenyl)-2-(4-sulfophenyl)-2Htetrazolium) assay.
(§4) To determine if 281816 would inhibit HCV genotypes other than 2a, a series of infection assays were performed with HCVpp bearing envelope proteins from a number of different HCV genotypes.

HCVpp 1b = test: HCVpp genotype infection of Huh-7 cells, 24-well; format: cell-based, HCV; conditions: Hepatitis C virus
Method: as §1, §2, §3, §4

HCVpp 1a = test: HCVpp genotype infection of Huh-7 cells, 24-well; format: cell-based, HCV; conditions: Hepatitis C virus
Method: as §1, §2, §3, §4

RD114pp = RD114pp infection of Huh-7 cells (luciferase); format: cell-based, feline endogenous virus RD114; conditions: Feline endogenous virus RD114, Huh-7, 30 h, read-out: IC50 RD114pp
Method: as §1, §2
Pseudotyped retroviral particles harboring the envelope protein of an endogenous feline retrovirus (RD114pp) were first used to determine the specificity and the safety of molecules.

[1] = target: T2, HCV E2 protein binding to native CD81 on Raji cells (Hepatitis C virus genotype 1b, UniProt Q9WMX2); test: Flow cytometry: recombinant HCV E2 binding to native CD81 on Raji cells; format: cell-based, human; conditions: E2 pre-incubated with 1-400 μM ligand; flow cytometry MFI
T2 construct: encoding amino acids 384-656 of the Con1 envelope protein 2 ectodomain (eE2); Protein A (C); made in house; host or cells: E2: HEK293T cells (inferred); CD81: endogenous on Raji cells
Method: The human B cell line, Raji, which expresses high levels of CD81 on its surface was used to determine if ligands could inhibit the binding of HCV-E2 protein to native CD81. Cells were grown in RPMI medium (10% fetal calf serum, 1% penicillin/streptomycin, 1% L-glutamine, 1% non-essential amino acids, 1% sodium pyruvate, pH 7.4) at 37° C. in an atmosphere of 5% CO2. Purified HCV-E2 protein (4 μg) was pre-incubated with 1,5,15, 50, 100 or 400 μM of the ligand 281816 for 25 min RT. After pre-incubation the E2-ligand complex was added to the cells and incubated for 25 min. The complexes were washed from the cells and 0.5 μg of anti E2 antibody (clone H53) was added followed by secondary anti mouse-FITC (Southern Biotechnology). The cells were washed, fixed with 3% paraformaldehyde, and analyzed by flow cytometry (BD FACSCalibur, software: Cell Quest Pro) analysis. The mean fluorescence intensity (MFI) was calculated using Flowjo software (TreesStar, www.flowjo.com).
Ligand 281816 was selected based on the prediction by docking that it would bind to a site on the HCV E2 protein where CD81 binds. To confirm that the binding of 281816 to E2 inhibits the HCV E2-CD81 interaction, flow cytometry was used to monitor the binding of a recombinant form of the E2 protein to native CD81 overexpressed on Raji cells as a function of 281816 concentration.

T1 sequence (Q9WMX2 384-656): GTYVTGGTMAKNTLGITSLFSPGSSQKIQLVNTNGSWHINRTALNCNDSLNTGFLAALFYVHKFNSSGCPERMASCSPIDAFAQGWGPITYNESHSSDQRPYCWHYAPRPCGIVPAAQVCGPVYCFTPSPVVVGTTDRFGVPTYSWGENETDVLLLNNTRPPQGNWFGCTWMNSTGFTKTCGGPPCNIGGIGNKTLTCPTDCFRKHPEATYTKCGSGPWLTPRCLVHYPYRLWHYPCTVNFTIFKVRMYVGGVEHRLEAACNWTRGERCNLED
T2 sequence (Q9WMX2 384-656): as above

Structure (SMILES): CSc1ccc2c(c1)C(N1CCN(C)CC1)Cc1ccccc1S2 (centres unmarked) [Ligand 281816]
- Binding (RU) (recombinant E2 protein; 200 μM ligand in PBS, 3 min association): 64.5 RU
- Dissociation 1 (RU) (recombinant E2 protein; response remaining 10 sec after rinsing with buffer): 3.7 RU
- Dissociation 2 (RU) (recombinant E2 protein; response remaining 50 sec after rinsing with buffer): 0.9 RU
- pIC50 (HCVpp 6a): 5.48
- pIC50 (HCVpp 1b): 5.33
- pIC50 (HCVpp 1a): 5.53
- pIC50 (RD114pp): < 5.00
- inhibition of E2 protein binding to CD81 on Raji cells [1]: inhibited by 281816 in a dose-dependent manner up to 100 μM
